# Where “and” joins values, the source holds several entries; their conditions need not be identical. Equal entries are not always repeated. Structures can show the parent of a compound that is named as a salt. Where two headings read alike, the source gives them in different places.
# Legend:
# OATP1B3 [1] = target: T1, OATP1B3 (Homo sapiens, UniProt Q9NPD5); assay: Inhibition of FMTX uptake in CHO cells stably transfected with OATP1B3; type: cell-based; conditions: for Correctness of prediction, second symbol (OATP1B3): inhibitor class from measured IC50 against the consensus prediction
# T1 construct: host or cells: CHO (Chinese hamster ovary) cells, stably transfected
# T1 sequence (Q9NPD5 1-702): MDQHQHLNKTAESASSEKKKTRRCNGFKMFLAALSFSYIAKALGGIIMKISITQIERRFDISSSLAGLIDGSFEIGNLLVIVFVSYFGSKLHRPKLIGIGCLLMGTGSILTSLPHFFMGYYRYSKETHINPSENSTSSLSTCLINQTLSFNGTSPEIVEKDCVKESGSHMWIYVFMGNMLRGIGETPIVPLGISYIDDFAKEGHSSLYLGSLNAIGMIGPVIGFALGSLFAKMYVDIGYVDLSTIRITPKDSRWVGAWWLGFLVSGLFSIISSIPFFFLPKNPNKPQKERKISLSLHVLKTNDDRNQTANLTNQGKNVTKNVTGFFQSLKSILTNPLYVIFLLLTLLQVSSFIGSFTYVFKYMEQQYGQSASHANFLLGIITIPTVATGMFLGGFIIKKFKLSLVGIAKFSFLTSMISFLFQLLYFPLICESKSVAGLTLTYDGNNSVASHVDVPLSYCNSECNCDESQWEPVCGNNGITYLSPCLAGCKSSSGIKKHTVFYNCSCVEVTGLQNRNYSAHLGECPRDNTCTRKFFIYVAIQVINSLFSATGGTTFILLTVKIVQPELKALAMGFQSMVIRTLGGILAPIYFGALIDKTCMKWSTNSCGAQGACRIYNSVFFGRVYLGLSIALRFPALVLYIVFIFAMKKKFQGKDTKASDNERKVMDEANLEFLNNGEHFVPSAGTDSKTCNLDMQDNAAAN
# Protocol: (§1) Chinese hamster ovary (CHO) cells that were stably transfected with OATP1B1 or OATP1B3 and wild-type CHO cells were provided by the University of Zurich, Switzerland, and have been extensively characterized previously.[24],[56],[57] Cells were grown in Dulbecco’s modified Eagle medium (DMEM) supplemented with 10% FCS, 50 μg/mL L-proline, 100 U/mL penicillin, and 100 μg/mL streptomycin. The culture media of the transfected CHO cells additionally contained 500 μg/mL Geneticin sulfate (G418) (Sigma-Aldrich, Munich, Germany). Media and supplements were obtained from Invitrogen (Karlsruhe, Germany). Cells were incubated at 5% CO2 and 37 °C. For uptake experiments, CHO cells were seeded in 24-well plates (BD Biosciences, Heidelberg, Germany) at a density of 25,000 cells/well. Uptake assays were generally performed on day 3 after seeding, when the cells had grown to confluence. 24 h before starting the transport experiments, cells were additionally treated with 5 mM sodium butyrate (Sigma-Aldrich, Munich, Germany) to induce gene expression. Prior to the uptake experiments, cells were rinsed twice with 2 mL of prewarmed (37 °C) uptake buffer (116.4 mM NaCl, 5.3 mM KCL, 1 mM NaH2PO4, 0.8 mM MgSO4, 5.5 mM D-glucose, and 20 mM Hepes, pH adjusted to 7.4). Uptake was initiated by adding 0.5 mL of uptake buffer containing 5 μM of the fluorescent OATP1B1/1B3 substrate FMTX[58] in the presence or absence of inhibitors. After 10 min culture at 37 °C, uptake was stopped by removing the uptake solution and washing the cells 3 times with ice-cold uptake buffer. The cells were then lysed with 0.5 mL of 0.5% Triton X-100 solution dissolved in PBS and placed on a plate shaker for 30 min. Fluorescence was measured in an Enspire Multimode plate reader (PerkinElmer, Waltham, MA) at an excitation wavelength of 485 and an emission wavelength of 528 nm.
# (§2) IC50 values were determined by plotting the log inhibitor concentration against the net uptake rate and nonlinear regression of the data set using the equation [drawing 1] in which y is the net uptake rate (pmol/μg of protein/min), I is the inhibitor concentration (μM), s is the slope at the point of inversion, and a and b are the maximum and minimum values for cellular uptake (GraphPad Software, San Diego, CA, USA) . Net uptake was calculated for each inhibitor concentration as the difference in the uptake rates of the transporter-expressing and wild-type cell lines. Unless otherwise indicated, values are expressed as mean ± SD of three individual experiments. Significant differences from control values were determined using a Student’s paired t test at a significance level of p < 0.05.
# [2] = cited from earlier work
# OATP1B1 [3] = target: T2, OATP1B1 (Homo sapiens, UniProt Q9Y6L6); assay: Inhibition of FMTX uptake in CHO cells stably transfected with OATP1B1; type: cell-based; conditions: for IC50: CHO cells stably transfected with OATP1B1, 5 μM FMTX, 10 min, 37 °C, means ± SD of three independent experiments; for Correctness of prediction, first symbol (OATP1B1): inhibitor class from measured IC50 against the consensus prediction
# T2 construct: host or cells: CHO (Chinese hamster ovary) cells, stably transfected
# T2 sequence (Q9Y6L6 1-691): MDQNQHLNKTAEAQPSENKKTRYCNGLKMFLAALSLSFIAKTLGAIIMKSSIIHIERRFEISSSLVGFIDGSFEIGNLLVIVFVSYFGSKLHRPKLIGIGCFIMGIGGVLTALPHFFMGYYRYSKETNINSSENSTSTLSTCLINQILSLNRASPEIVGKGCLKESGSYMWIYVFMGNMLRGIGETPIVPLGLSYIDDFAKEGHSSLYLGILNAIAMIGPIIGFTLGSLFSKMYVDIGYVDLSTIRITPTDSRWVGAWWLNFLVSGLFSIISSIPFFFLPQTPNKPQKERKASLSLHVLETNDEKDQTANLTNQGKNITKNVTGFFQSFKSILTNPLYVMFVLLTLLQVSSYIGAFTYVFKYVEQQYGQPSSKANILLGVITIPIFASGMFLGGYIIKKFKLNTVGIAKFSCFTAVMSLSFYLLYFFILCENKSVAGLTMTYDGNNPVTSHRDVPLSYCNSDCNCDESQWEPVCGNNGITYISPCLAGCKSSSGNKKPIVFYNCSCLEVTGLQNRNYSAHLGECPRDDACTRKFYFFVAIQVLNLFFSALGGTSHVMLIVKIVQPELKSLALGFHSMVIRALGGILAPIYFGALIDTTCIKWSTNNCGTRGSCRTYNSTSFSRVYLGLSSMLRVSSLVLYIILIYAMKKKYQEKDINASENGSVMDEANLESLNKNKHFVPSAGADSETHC
# Protocol: as §1, §2
# OATP1B3 [4] = conditions: commercial library of 640 FDA-approved drugs; cited from earlier work
# OATP1B1 [5] = test system: OATP1B1; parameters: method as in PMID 25603031; conditions: commercial library of 640 FDA-approved drugs; cited from earlier work
# OATP1B1 [6] = test system: OATP1B1; parameters: method as in PMID 22541068; conditions: cited from earlier work
# OATP1B1 [7] = test system: OATP1B1; parameters: method as in PMID 23571415; conditions: cited from earlier work
# [8] = CHO cells stably transfected with OATP1B3, 5 μM FMTX, 10 min, 37 °C, means ± SD of three independent experiments, read-out: IC50 (μM) OATP1B3
# [9] = remark printed after the IC50 value, read-out: OATP1B3 inhibition, remark in the IC50 cell
Compound,IC50 (OATP1B3 [1]; [8]),IC50 (OATP1B1 [3]),IC50 (OATP1B3 [1]; [9]),"OATP1B1 inhibition, result in words (OATP1B1 [3]; false negative of the OATP1B1 consensus model)","Correctness of prediction, second symbol (OATP1B3) (OATP1B3 [1])","hepatotoxicity, literature reports [2]","hyperbilirubinemia, reports in online sources and literature [2]","Correctness of prediction, first symbol (OATP1B1) (OATP1B1 [3])",rank among OATP1B3 inhibitors in the screen of van de Steeg et al. (OATP1B3 [4]),rank among OATP1B1 inhibitors in the screen of van de Steeg et al. (OATP1B1 [5]),"hepatic serum enzymes, literature report [2]",OATP1B1 inhibition class as evaluated by Karlgren et al. (OATP1B1 [6]),OATP1B1 inhibition class as annotated by De Bruyn et al. (OATP1B1 [7]),"effect on liver injury, literature report ([2]; diabetic patients)"
CO[C@H]1C[C@@H]2CC[C@@H](C)[C@@](O)(O2)C(=O)C(=O)N2CCCC[C@H]2C(=O)O[C@H]([C@H](C)C[C@@H]2CC[C@@H](O)[C@H](OC)C2)CC(=O)[C@H](C)/C=C(\C)[C@@H](O)[C@@H](OC)C(=O)[C@H](C)C[C@H](C)/C=C/C=C/C=C/1C [Rapamycin (Sirolimus)],,0.62 ± 0.19 µM,,,"+++,+++ (strong inhibitor (IC50 values less than 1 μM))",some literature reports for hepatotoxicity,causing hyperbilirubinemia,"+++,+++ (strong inhibitor (IC50 values less than 1 μM))",20 strongest OATP1B1 and OATP1B3 inhibitors,20 strongest OATP1B1 and OATP1B3 inhibitors,,,,
Cc1cc2nc3c(=O)[nH]c(=O)nc-3n(C[C@H](O)[C@H](O)[C@H](O)COP(=O)(O)OP(=O)(O)OC[C@H]3O[C@@H](n4cnc5c(N)ncnc54)[C@H](O)[C@@H]3O)c2cc1C [Flavin adenine dinucleotide],10 ± 0.78 µM,6.62 ± 1.15 µM,,OATP1B1 inhibitor,+ (moderate inhibitors (IC50 values between 5 and 10 μM)),,,x (wrong class prediction),,,,,,
O=C(O)c1cc(/N=N/c2ccc(S(=O)(=O)Nc3ccccn3)cc2)ccc1O [sulfasalazine],,,,,,,,,,,,inhibitor,noninhibitor,
"CN(C)c1cccc2c(S(=O)(=O)N[C@@H](Cc3ccc(OS(=O)(=O)c4cccc5c(N(C)C)cccc45)cc3)C(=O)O)cccc12 [N,O-Didansyl-L-Tyrosine]",2.94 ± 0.75 µM,6.07 ± 0.56 µM,,,++ (moderately strong inhibitor (IC50 values between 1 and 5 μM)),,,+ (moderate inhibitors (IC50 values between 5 and 10 μM)),,,,,,
CCCCc1oc2ccc(NS(C)(=O)=O)cc2c1C(=O)c1ccc(OCCCN(CCCC)CCCC)cc1 [Dronedarone hydrochlorid e],1.12 ± 0.2 µM,0.32 ± 0.07 µM,,,++ (moderately strong inhibitor (IC50 values between 1 and 5 μM)),some literature reports for hepatotoxicity,causing hyperbilirubinemia,+++ (strong inhibitor (IC50 values less than 1 μM)),,,,,,
CCC(=O)O[C@@H](O[P@](=O)(CCCCc1ccccc1)CC(=O)N1C[C@H](C2CCCCC2)C[C@H]1C(=O)O)C(C)C [Fosinopril sodium],5.19 ± 0.98 µM,6.28 ± 1.13 µM,,,"+,+ (moderate inhibitors (IC50 values between 5 and 10 μM))",some literature reports for hepatotoxicity,causing hyperbilirubinemia,"+,+ (moderate inhibitors (IC50 values between 5 and 10 μM))",20 strongest OATP1B1 and OATP1B3 inhibitors,20 strongest OATP1B1 and OATP1B3 inhibitors,,,,

# The next lines start with results.
IC50 (OATP1B3 [1]; [8]),IC50 (OATP1B1 [3]),IC50 (OATP1B3 [1]; [9]),"OATP1B1 inhibition, result in words (OATP1B1 [3]; false negative of the OATP1B1 consensus model)",Compound,"Correctness of prediction, second symbol (OATP1B3) (OATP1B3 [1])","hepatotoxicity, literature reports [2]","hyperbilirubinemia, reports in online sources and literature [2]","Correctness of prediction, first symbol (OATP1B1) (OATP1B1 [3])",rank among OATP1B3 inhibitors in the screen of van de Steeg et al. (OATP1B3 [4]),rank among OATP1B1 inhibitors in the screen of van de Steeg et al. (OATP1B1 [5]),"hepatic serum enzymes, literature report [2]",OATP1B1 inhibition class as evaluated by Karlgren et al. (OATP1B1 [6]),OATP1B1 inhibition class as annotated by De Bruyn et al. (OATP1B1 [7]),"effect on liver injury, literature report ([2]; diabetic patients)"
4.96 ± 0.92 µM,7.84 ± 0.49 µM,,,COc1cc(C(=O)NS(=O)(=O)c2ccccc2C)ccc1Cc1cn(C)c2ccc(NC(=O)OC3CCCC3)cc12 [Zafirlukast],++ (moderately strong inhibitor (IC50 values between 1 and 5 μM)),some literature reports for hepatotoxicity,causing hyperbilirubinemia,+ (moderate inhibitors (IC50 values between 5 and 10 μM)),,,,,,
> 10 µM and 33.8 µM,0.37 ± 0.19 µM,> 10 µM,,CS(=O)(=O)CCNCc1ccc(-c2ccc3ncnc(Nc4ccc(OCc5cccc(F)c5)c(Cl)c4)c3c2)o1 [Lapatinib],-+ (slight inhibitors (IC50 values above 10 μM)),some literature reports for hepatotoxicity,causing hyperbilirubinemia,+++ (strong inhibitor (IC50 values less than 1 μM)),,,,,,
0.9 ± 0.17 µM,0.38 ± 0.12 µM,,,CC(C)C[C@H](NC(=O)[C@H](CCc1ccccc1)NC(=O)CN1CCOCC1)C(=O)N[C@@H](Cc1ccccc1)C(=O)N[C@@H](CC(C)C)C(=O)[C@@]1(C)CO1 [Carfilzomib],"+++,+++ (strong inhibitor (IC50 values less than 1 μM))",,,"+++,+++ (strong inhibitor (IC50 values less than 1 μM))",,,,,,
> 10 µM and 30.8 µM,0.34 ± 0.09 µM,> 10 µM,,CC(=O)Nc1cccc(-n2c(=O)n(C3CC3)c(=O)c3c(Nc4ccc(I)cc4F)n(C)c(=O)c(C)c32)c1 [Trametinib],-+ (slight inhibitors (IC50 values above 10 μM)),,,+++ (strong inhibitor (IC50 values less than 1 μM)),,,elevating hepatic serum enzymes,,,
1.17 ± 0.31 µM,7.45 ± 1.64 µM,,,COc1ccc2c(c1)C(=O)N(CCc1ccc(S(=O)(=O)NC(=O)NC3CCCCC3)cc1)C(=O)C2(C)C [Gliquidone],++ (moderately strong inhibitor (IC50 values between 1 and 5 μM)),,,+ (moderate inhibitors (IC50 values between 5 and 10 μM)),,,,,,improve liver injury

# Source: article PMC4674819, “Identification of Novel Inhibitors of Organic Anion Transporting Polypeptides 1B1 and 1B3 (OATP1B1 and OATP1B3) Using a Consensus Vote of Six Classification Models” (Molecular Pharmaceutics, 2015)
